Data set [1] deals with T1, Tyrosine-protein phosphatase non-receptor type 11 (Homo sapiens) (UniProt Q06124).
T1 sequence (whole entry): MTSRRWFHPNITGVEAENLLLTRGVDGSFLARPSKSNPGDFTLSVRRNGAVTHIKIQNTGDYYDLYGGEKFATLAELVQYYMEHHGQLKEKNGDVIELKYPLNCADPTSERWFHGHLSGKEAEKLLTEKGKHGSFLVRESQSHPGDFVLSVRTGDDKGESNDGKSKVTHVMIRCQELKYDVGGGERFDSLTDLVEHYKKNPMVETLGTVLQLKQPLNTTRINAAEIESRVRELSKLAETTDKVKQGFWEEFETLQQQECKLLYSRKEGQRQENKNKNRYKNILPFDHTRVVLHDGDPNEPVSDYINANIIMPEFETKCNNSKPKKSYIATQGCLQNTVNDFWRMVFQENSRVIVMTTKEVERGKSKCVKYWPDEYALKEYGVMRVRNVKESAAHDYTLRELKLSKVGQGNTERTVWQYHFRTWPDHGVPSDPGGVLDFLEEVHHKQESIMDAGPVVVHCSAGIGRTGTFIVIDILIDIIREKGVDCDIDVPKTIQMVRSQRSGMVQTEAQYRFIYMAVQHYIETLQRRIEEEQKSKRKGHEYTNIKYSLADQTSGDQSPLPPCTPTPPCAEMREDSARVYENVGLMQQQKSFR
Description: Inhibition of SHP2 (unknown origin) using DiFMUP as substrate at 5 uM relative to control.

Data set [2] is filed under the species Homo sapiens. Description: Inhibition of PP2A (unknown origin) using DiFMUP as substrate at 5 uM relative to control.
Data set [3] has as its target T2, Low molecular weight phosphotyrosine protein phosphatase (Homo sapiens) (UniProt P24666).
T2 sequence (whole entry): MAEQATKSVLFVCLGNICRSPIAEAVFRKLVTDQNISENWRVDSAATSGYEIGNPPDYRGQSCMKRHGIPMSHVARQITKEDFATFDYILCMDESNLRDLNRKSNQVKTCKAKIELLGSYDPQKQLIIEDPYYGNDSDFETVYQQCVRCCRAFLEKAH
Description: Inhibition of LMPTPA (unknown origin) using DiFMUP as substrate at 5 uM relative to control.

Data set [4] addresses T3, Dual specificity protein phosphatase 22 (Homo sapiens) (UniProt Q9NRW4).
T3 sequence (whole entry): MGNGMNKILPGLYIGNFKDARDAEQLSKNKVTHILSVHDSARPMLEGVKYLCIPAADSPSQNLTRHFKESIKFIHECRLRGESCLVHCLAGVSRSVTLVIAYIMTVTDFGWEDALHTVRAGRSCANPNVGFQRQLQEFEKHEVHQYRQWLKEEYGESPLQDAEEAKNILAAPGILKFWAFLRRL
The data set can be described thus: Inhibition of DUSP22 (unknown origin) using DiFMUP as substrate at 5 uM relative to control.

The target of data set [5] is T4, Receptor-type tyrosine-protein phosphatase C (Homo sapiens) (UniProt P08575).
T4 sequence (whole entry): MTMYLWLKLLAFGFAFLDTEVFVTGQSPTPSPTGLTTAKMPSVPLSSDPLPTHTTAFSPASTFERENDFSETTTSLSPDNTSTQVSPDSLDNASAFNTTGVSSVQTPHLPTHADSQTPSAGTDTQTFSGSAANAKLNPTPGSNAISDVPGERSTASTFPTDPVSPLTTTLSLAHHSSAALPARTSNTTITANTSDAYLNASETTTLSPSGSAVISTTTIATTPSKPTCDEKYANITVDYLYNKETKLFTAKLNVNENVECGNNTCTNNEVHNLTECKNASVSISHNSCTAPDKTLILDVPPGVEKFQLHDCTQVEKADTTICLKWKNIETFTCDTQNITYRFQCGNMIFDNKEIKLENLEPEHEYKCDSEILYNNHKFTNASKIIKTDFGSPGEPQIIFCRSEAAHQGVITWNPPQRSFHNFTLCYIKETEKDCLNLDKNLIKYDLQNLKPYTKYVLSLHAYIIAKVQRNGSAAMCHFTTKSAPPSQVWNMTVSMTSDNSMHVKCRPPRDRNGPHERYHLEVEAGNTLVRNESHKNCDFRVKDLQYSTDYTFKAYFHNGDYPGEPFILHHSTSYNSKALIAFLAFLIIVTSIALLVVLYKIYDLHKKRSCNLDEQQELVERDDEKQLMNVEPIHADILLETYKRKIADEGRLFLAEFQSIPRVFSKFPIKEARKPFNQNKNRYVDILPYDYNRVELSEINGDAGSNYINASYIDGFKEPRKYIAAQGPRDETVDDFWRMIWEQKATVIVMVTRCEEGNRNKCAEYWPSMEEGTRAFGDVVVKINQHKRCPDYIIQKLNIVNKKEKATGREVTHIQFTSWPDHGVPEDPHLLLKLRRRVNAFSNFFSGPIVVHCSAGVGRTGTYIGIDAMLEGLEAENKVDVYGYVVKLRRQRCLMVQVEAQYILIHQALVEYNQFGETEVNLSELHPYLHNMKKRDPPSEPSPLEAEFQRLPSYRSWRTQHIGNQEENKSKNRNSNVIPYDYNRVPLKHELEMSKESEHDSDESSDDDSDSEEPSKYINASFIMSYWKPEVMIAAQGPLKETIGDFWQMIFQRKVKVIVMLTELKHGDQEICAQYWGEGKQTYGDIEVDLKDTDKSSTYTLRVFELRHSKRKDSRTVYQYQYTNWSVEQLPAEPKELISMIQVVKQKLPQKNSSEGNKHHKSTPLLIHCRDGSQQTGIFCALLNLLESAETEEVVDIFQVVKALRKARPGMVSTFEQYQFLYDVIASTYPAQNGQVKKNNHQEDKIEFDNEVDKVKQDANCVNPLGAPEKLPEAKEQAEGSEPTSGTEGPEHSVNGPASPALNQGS
The data set can be described thus: Inhibition of CD45 (unknown origin) using DiFMUP as substrate at 5 uM relative to control.

Data set [6] has as its system ASPC1. The data set can be described thus: Antimigratory activity against human AsPC1 cells overexpressing PRL3 at 10 to 20 uM after 20 hrs by crystal violet staining-based light microscopic analysis. The data set is classed as functional, cell-based.
Data set [7] has as its system DU-145. Description: Antimigratory activity against human DU145 cells expressing low level of PRL3 at 10 to 20 uM after 20 hrs by crystal violet staining-based light microscopic analysis. The format is functional, cell-based.
The subject of data set [8] is DLD-1. Description: Cytotoxicity against human DLD1 cells overexpressing PRL3 assessed as growth inhibition at 50 uM after 24 hrs by WST-1 assay. The data set is classed as cell-based. Conditions: dld-1, 24 h. On the technique in general: Tetrazolium dyes change colour on reduction, which living cells bring about.
Data set [9] deals with DLD-1. Description: Antimigratory activity against human DLD1 cells overexpressing PRL3 by crystal violet staining-based light microscopic analysis. The data set is classed as functional, cell-based.
Data set [10] concerns DLD-1. The data set can be described thus: Antimigratory activity against human DLD1 cells overexpressing PRL3 at 20 uM after 20 hrs by crystal violet staining-based light microscopic analysis relative to control. The data set is classed as functional. The note with it: DLD-1, 20 h.
In data set [11] the test system is DLD-1. Description: Antimigratory activity against human DLD1 cells overexpressing PRL3 at 10 ug/ml after 20 hrs by crystal violet staining-based light microscopic analysis relative to control. The data set is classed as functional. The note with it: DLD-1, 20 h.
The target of data set [12] is Tyrosine-protein phosphatase YopH (Yersinia enterocolitica) (UniProt P15273). The data set can be described thus: Inhibition of yopH (unknown origin) using DiFMUP as substrate at 5 uM relative to control.

inhibition, Activity and IC50 data for two molecules are collected here from ChEMBL document CHEMBL2396625 (Bioorg Med Chem Lett, 2013).

The structures appear in SMILES notation. Activity calls are given as the source filed them. The calls are words filed in the database; no cut-off is given here. Bounds are passed on as bounds.

Regarding `O=C1NC(=S)S/C1=C\c1cc(Br)ccc1OCc1ccccc1Br`, the inhibition (commonly how much of the control response was suppressed) is 27% in [1]; 0% in data set [2]; 0% in data set [3]; 30% in data set [4]; 12% in data set [5]; “Dose-dependent effect” in data set [9]. Besides, the inhibition in [12] came to 14%. The outcome in [6] was Active. Also, the result in data set [7] was inactive. Further, the Activity result in data set [8] is reported as “Non-toxic”. In data set [9], the half-inhibitory concentration (IC50) (usually the midpoint of a concentration-inhibition curve) was 7 µM. In addition, the inhibition at 20 µM in data set [10] was greater than 90%. This molecule displayed an inhibition at 10 µg/mL in data set [11] of 95%.
`COc1ccccc1COc1ccccc1/C=C/C=C1\SC(=S)NC1=O`: the inhibition in data set [1] was 18%; in [2], 29%; in data set [3], 6%; in data set [4] it was 10%; in data set [5], 11%; in [9], “Dose-dependent effect”. The inhibition in [12] turned out to be 9%. Besides, the outcome in [6] was Active. Besides, in [7], the result was inactive. The Activity result in data set [8] is reported as “Non-toxic”. In [9], this molecule yielded an IC50 of 5 µM. In addition, in [10], the inhibition at 20 µM was greater than 90%. The same molecule displayed an inhibition at 10 µg/mL in data set [11] of 98%.
